Measured values as given in patent publication US12077503B2, “Substituted cyclic amides and their use as herbicides” (FMC CORPORATION, priority 2015, dated 2024).

Assays:
Assay type in all cases: in vivo
[1] = system: ryegrass, Italian (Italian ryegrass, Lolium multiflorum); assay: Test A preemergence
Outline: (§1)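 Each rating is a visual injury score from 0 to 100 given about 10 d after treatment, judged against untreated controls kept alongside in the greenhouse. In loam soil–sand blend, seeds got a preemergence directed soil spray, while postemergence plants were 2 to 10 cm tall at spraying.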

[2] = system: barnyardgrass (Echinochloa crus-galli); assay: Test A preemergence
Outline: as §1

[3] = system: ragweed (common ragweed, Ambrosia elatior); assay: Test A preemergence
Outline: as §1

[4] = system: giant foxtail (Setaria faberii); assay: Test A preemergence
Outline: as §1

[5] = system: pigweed (Amaranthus retroflexus); assay: Test A preemergence
Kochia (Kochia scoparia) [6] = assay: Test A preemergence
Outline: as §1

[7] = system: wheat (Triticum aestivum); assay: Test A postemergence; details: postemergence, 0 to 100 scale (0 no effect, 100 complete control)
Outline: as §1

[8] = system: Galium (catchweed bedstraw, Galium aparine); assay: Test A postemergence; details: postemergence, 0 to 100 scale (0 no effect, 100 complete control)
Outline: as §1

[9] = system: ryegrass, Italian (Italian ryegrass, Lolium multiflorum); assay: Test A postemergence; details: postemergence, 0 to 100 scale (0 no effect, 100 complete control)
Outline: as §1

[10] = system: barnyardgrass (Echinochloa crus-galli); assay: Test A postemergence; details: postemergence, 0 to 100 scale (0 no effect, 100 complete control)
Outline: as §1

[11] = system: ragweed (common ragweed, Ambrosia elatior); assay: Test A postemergence; details: postemergence, 0 to 100 scale (0 no effect, 100 complete control)
Outline: as §1

[12] = system: giant foxtail (Setaria faberii); assay: Test A postemergence; details: postemergence, 0 to 100 scale (0 no effect, 100 complete control)
Outline: as §1

[13] = system: pigweed (Amaranthus retroflexus); assay: Test A postemergence; details: postemergence, 0 to 100 scale (0 no effect, 100 complete control)
Outline: as §1

[14] = system: blackgrass (Alopecurus myosuroides); assay: Test A postemergence; details: postemergence, 0 to 100 scale (0 no effect, 100 complete control)
Outline: as §1

Kochia (Kochia scoparia) [15] = assay: Test A postemergence; details: postemergence, 0 to 100 scale (0 no effect, 100 complete control)
Outline: as §1

corn (Zea mays) = assay: Test A postemergence; details: postemergence, 0 to 100 scale (0 no effect, 100 complete control)
Outline: as §1

[16] = system: barnyardgrass (Echinochloa crus-galli); assay: Test B flooded paddy test; details: Flood, 250 g ai/ha; 0 to 100 scale where 0 is no effect and 100 is complete control; 13 to 15 d
Outline: (§2)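 Visual ratings (0 none to 100 complete control) are relative to untreated plants, taken 13–15 d after treatment in a greenhouse. Test material went straight into floodwater standing 3 cm above the soil, kept constant, on plants at the 2-leaf stage.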

rice (Oryra sativa) = assay: Test B flooded paddy test; details: Flood, 250 g ai/ha; 0 to 100 scale where 0 is no effect and 100 is complete control; 13 to 15 d
Outline: as §2

[17] = system: sedge, umbrella (small-flower umbrella sedge, Cyperus difformis); assay: Test B flooded paddy test; details: Flood, 250 g ai/ha; 0 to 100 scale where 0 is no effect and 100 is complete control; 13 to 15 d
Outline: as §2

[18] = system: ducksalad (Heteranthera limosa); assay: Test B flooded paddy test; details: Flood, 250 g ai/ha; 0 to 100 scale where 0 is no effect and 100 is complete control; 13 to 15 d
Outline: as §2

[19] = 125 g ai/ha, Preemergence, visual injury after approximately 10 d, 0 to 100 scale where 0 is no effect and 100 is complete control
[20] = 500 g ai/ha, preemergence, 0 to 100 scale, 0 = no effect, 100 = complete control
[21] = 125 g ai/ha, visual rating after approx. 10 d
[22] = 500 g ai/ha, visual injury, approx. 10 d

Compound | Plant response rating, Ryegrass, Italian [1, 19] | Plant response rating, Ryegrass, Italian [1, 20] | Plant response rating, Barnyardgrass [2, 19] | Plant response rating, Barnyardgrass [2, 20] | Plant response rating, Ragweed [3, 19] | Plant response rating, Ragweed [3, 20] | Plant response rating, Foxtail, Giant [4, 19] | Plant response rating, Foxtail, Giant [4, 20] | Plant response rating, Pigweed [5, 19] | Plant response rating, Pigweed [5, 20] | Plant response rating, Kochia (Kochia (Kochia scoparia) [6]; [19]) | Plant response rating, Kochia (Kochia (Kochia scoparia) [6]; [20]) | Plant response rating, Wheat [7, 21] | Plant response rating, Wheat [7, 22] | Plant response rating, Galium [8, 21] | Plant response rating, Galium [8, 22] | Plant response rating, Ryegrass, Italian [9, 21] | Plant response rating, Ryegrass, Italian [9, 22] | Plant response rating, Barnyardgrass [10, 21] | Plant response rating, Barnyardgrass [10, 22] | also measured
Cc1cc(C2CNC(=O)C2C(=O)Nc2cccc(F)c2F)cs1 (racemic) [Compound 656] | 30 | 60 | 90 | 90 | 20 | 60 | 90 | 90 | 30 | 40 | 60 | 50 | 0 | 20 | 0 | 60 | 0 | 0 | 90 | 90 | Plant response rating, Ragweed [11, 21]: 0; Plant response rating, Ragweed [11, 22]: 0; Plant response rating, Foxtail, Giant [12, 21]: 20; Plant response rating, Foxtail, Giant [12, 22]: 60; Plant response rating, Pigweed [13, 21]: 0; Plant response rating, Pigweed [13, 22]: 0; Plant response rating, Blackgrass [14, 21]: 0; Plant response rating, Blackgrass [14, 22]: 30; Plant response rating, Kochia (Kochia (Kochia scoparia) [15]; [21]): 20; Plant response rating, Kochia (Kochia (Kochia scoparia) [15]; [22]): 30; Plant response rating, Corn (corn (Zea mays); [21]): 0; Plant response rating, Corn (corn (Zea mays); [22]): 20; Plant response rating, Barnyardgrass [16]: 50; Plant response rating, Rice (rice (Oryra sativa)): 0; Plant response rating, Sedge, Umbrella [17]: 0; Plant response rating, Ducksalad [18]: 100
CCc1cc(C2CNC(=O)C2C(=O)Nc2ccccc2F)cs1 (racemic) [Compound 657] | 20 | 30 | 90 | 90 | 20 | 20 | 90 | 90 | 20 | 30 | 20 | 40 | 0 | 0 | 0 | 30 | 0 | 0 | 90 | 90 | Plant response rating, Ragweed [11, 21]: 0; Plant response rating, Ragweed [11, 22]: 0; Plant response rating, Foxtail, Giant [12, 21]: 0; Plant response rating, Foxtail, Giant [12, 22]: 60; Plant response rating, Pigweed [13, 21]: 0; Plant response rating, Pigweed [13, 22]: 0; Plant response rating, Blackgrass [14, 21]: 0; Plant response rating, Blackgrass [14, 22]: 30; Plant response rating, Kochia (Kochia (Kochia scoparia) [15]; [21]): 0; Plant response rating, Kochia (Kochia (Kochia scoparia) [15]; [22]): 0; Plant response rating, Corn (corn (Zea mays); [21]): 0; Plant response rating, Corn (corn (Zea mays); [22]): 0; Plant response rating, Barnyardgrass [16]: 40; Plant response rating, Rice (rice (Oryra sativa)): 0; Plant response rating, Sedge, Umbrella [17]: 0; Plant response rating, Ducksalad [18]: 100
